Test results reported in patent US10829458B2 (Araxes Pharma LLC, priority 2015, dated 2020).

Target: T1, KRAS G12C 1-169, his-tagged protein, GDP-loaded (Homo sapiens, UniProt P01116, G12C)
T1 construct: KRAS G12C 1-169, his-tagged protein, GDP-loaded
Experiment: Biochemical assay: covalent modification of KRAS G12C measured by mass spectrometry (RapidFire/TOF or Q-Exactive)
Conditions: covalent binding to KRAS G12C
Outline: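 Covalent adduct formation read by intact-mass spectrometry (TOF or Q Exactive Plus, charge envelopes deconvoluted into modified and unmodified species) after formic acid quench. Reactions contained 2 μM GDP-bound KRAS G12C 1-169 (his-tag) in Hepes/NaCl/MgCl2 buffer plus 10, 30 or 100 μM final compound, held 30 min, 2 h or 24 h at room temperature.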

SMILES	Binding % (compounds of structure (I))	Binding % (compounds of structure (II))
C=CC(=O)N1CCN(c2nc(NC3CCN(C4CC4)CC3)nc3c(F)c(-c4cc(O)cc5ccccc45)c(Cl)cc23)CC1 [Example I-75, 1-(4-(6-chloro-2-(1-cyclo-propylpiperidin-4-ylamino)-8-fluoro-7-(3-hydroxy-naphthalen-1-yl)quinazolin-4-yl)piperazin-1-yl)prop-2-en-1-one]	+++ (+++ indicates binding activity greater than 90%)	
C=CC(=O)N1CCN(c2nc(OCC3CCN(C4CC4)CC3)nc3c(F)c(-c4c(O)cccc4F)c(Cl)cc23)CC1 [Example I-172, 1-(4-(6-chloro-2-((1-cyclopropyl-piperidin-4-yl)methoxy)-8-fluoro-7-(2-fluoro-6-hydroxyphenyl)quinazolin-4-yl)piperazin-1-yl) prop-2-en-1-one]	+++ (+++ indicates binding activity greater than 90%)	
C=CC(=O)N1CCN(c2nc(NCCN3CC[C@@H](O)C3)nc3c(F)c(-c4c(O)cccc4F)c(Cl)cc23)CC1 [Example I-56, 1-(4-(6-chloro-8-fluoro-7-(2-fluoro-6-hydroxyphenyl)-2-(2-((R)-3-hydroxy-pyrrolidin-1-yl)ethylamino)quinazolin-4-yl)piperazin-1-yl) prop-2-en-1-one]	+++ (+++ indicates binding activity greater than 90%)	
C=CC(=O)N1CCN(c2nc(NC3CN(C4CCOCC4)C3)nc3c(F)c(-c4c(O)cccc4F)c(Cl)cc23)CC1 [Example I-185, 1-(4-(6-chloro-8-fluoro-7-(2-fluoro-6-hydroxyphenyl)-2-((1-(tetrahydro-2H-pyran-4-yl)azetidin-3-yl)amino)quinazolin-4-yl)piperazin-1-yl) prop-2-en-1-one]	+ (+ indicates binding activity up to 50%)	
C=CC(=O)N1CCN(c2nc(OCCc3cccc(C)n3)nc3c(F)c(-c4c(O)cccc4F)c(Cl)cc23)CC1 [Example I-89, 1-(4-(6-chloro-8-fluoro-7-(2-fluoro-6-hydroxyphenyl)-2-(2-(6-methyl-pyridin-2-yl)ethoxy)quinazolin-4-yl)piperazin-1-yl)prop-2-en-1-one]	+++ (+++ indicates binding activity greater than 90%)	
C=CC(=O)N1CCN(c2nc(OCCN(CC)CC)nc3c(F)c(-c4c(O)cccc4F)c(Cl)cc23)CC1 (atropisomer, axis not shown) [Example I-88, (R)-1-(4-(6-chloro-2-(2-(diethylamino)ethoxy)-8-fluoro-7-(2-fluoro-6-hydroxyphenyl)quinazolin-4-yl)piperazin-1-yl) prop-2-en-1-one]	+ (+ indicates binding activity up to 50%)	
C=CC(=O)N1CCN(c2nc(OCCN3CC(F)(F)C3)nc3c(F)c(-c4c(O)cccc4F)c(Cl)cc23)CC1 (atropisomer, axis not shown) [Example I-126, (R)-1-(4-(6-chloro-2-(2-(3,3-difluoro-azetidin-1-yl)ethoxy)-8-fluoro-7-(2-fluoro-6-hydroxyphenyl)quinazolin-4-yl)piperazin-1-yl) prop-2-en-1-one]	+ (+ indicates binding activity up to 50%)	
C=CC(=O)N1CCCN(c2ncnc3c(F)c(-c4c(O)cccc4F)c(Cl)cc23)CC1 [II-7, 1-(4-(6-chloro-8-fluoro-7-(2-fluoro-6-hydroxyphenyl)quinazolin-4-yl)-1,4-diazepan-1-yl)prop-2-en-1-one]		+ (+ indicates binding activity up to 50%)
C=CC(=O)N1CCN(c2nc(N)nc3c(F)c(-c4c(O)cccc4F)c(Cl)cc23)CC1 [Example I-175, 1-(4-(2-amino-6-chloro-8-fluoro-7-(2-fluoro-6-hydroxyphenyl)quinazolin-4-yl)piperazin-1-yl) prop-2-en-1-one]	++ (++ indicates binding activity from 50 to 90%)	
C=CC(=O)N1CCN(c2nc(OCCN3CCC(F)(F)C3)nc3c(F)c(-c4c(O)cccc4F)c(Cl)cc23)CC1 (atropisomer, axis not shown) [Example I-97, (S)-1-(4-(6-chloro-2-(2-(3,3-difluoro-pyrrolidin-1-yl)ethoxy)-8-fluoro-7-(2-fluoro-6-hydroxyphenyl)quinazolin-4-yl)piperazin-1-yl)prop-2-en-1-one]	+++ (+++ indicates binding activity greater than 90%)	
C=CC(=O)N1CCN(c2nc(OC3CCN(C)CC3)nc3c(F)c(-c4c(O)cccc4F)c(Cl)cc23)CC1 [Example I-92, 1-(4-(6-chloro-8-fluoro-7-(2-fluoro-6-hydroxyphenyl)-2-(1-methyl-piperidin-4-yloxy)quinazolin-4-yl)piperazin-1-yl)prop-2-en-1-one]	+++ (+++ indicates binding activity greater than 90%)	
C=CC(=O)N1CCN(c2nc(OC3CCN(C)C3)nc3c(F)c(-c4c(O)cccc4F)c(Cl)cc23)CC1 (stereo not drawn) [Example I-22, 1-(4-(6-chloro-8-fluoro-7-(2-fluoro-6-hydroxyphenyl)-2-(1-methyl-pyrrolidin-3-yloxy)quinazolin-4-yl)piperazin-1-yl)prop-2-en-1-one]	++ (++ indicates binding activity from 50 to 90%)	
C=CC(=O)N1CCN(c2nc(OCCN3CC(F)(F)C3)nc3c(F)c(-c4cc(O)cc5ccccc45)c(Cl)cc23)CC1 [Example I-107, 1-(4-(6-chloro-2-(2-(3,3-difluoro-azetidin-1-yl)ethoxy)-8-fluoro-7-(3-hydroxy-naphthalen-1-yl)quinazolin-4-yl)piperazin-1-yl) prop-2-en-1-one]	+++ (+++ indicates binding activity greater than 90%)	
CN(C)C/C=C/C(=O)N1CCN(c2nc(OCCN3CCOCC3)nc3c(F)c(-c4cc(O)cc5ccccc45)c(Cl)cc23)CC1 [Example I-65, (E)-1-(4-(6-chloro-8-fluoro-7-(3-hydroxy-naphthalen-1-yl)-2-(2-morpholino-ethoxy)quinazolin-4-yl)piperazin-1-yl)-4-(dimethyl-amino)but-2-en-1-one]	+++ (+++ indicates binding activity greater than 90%)	
C=CC(=O)N1CCN(c2nc(CNc3ccccn3)nc3c(F)c(-c4c(O)cccc4F)c(Cl)cc23)CC1 [Example I-199, 1-(4-(6-chloro-8-fluoro-7-(2-fluoro-6-hydroxyphenyl)-2-((pyridin-2-ylamino)methyl)quinazolin-4-yl)piperazin-1-yl) prop-2-en-1-one]	+++ (+++ indicates binding activity greater than 90%)	
C=CC(=O)N1CCN(c2nc(C(=O)N3CCOCC3)nc3c(F)c(-c4c(O)cccc4F)c(Cl)cc23)CC1 [Example I-49, 1-(4-(6-chloro-8-fluoro-7-(2-fluoro-6-hydroxyphenyl)-2-(morpholine-4-carbonyl)quinazolin-4-yl)piperazin-1-yl) prop-2-en-1-one]	+++ (+++ indicates binding activity greater than 90%)	
C=CC(=O)N1CCN(c2nc(OC3CCN(C4CC4)CC3)nc3c(F)c(-c4c(O)cccc4F)c(Cl)cc23)CC1 [Example I-94, 1-(4-(6-chloro-2-(1-cyclopropyl-piperidin-4-yloxy)-8-fluoro-7-(2-fluoro-6-hydroxyphenyl)quinazolin-4-yl)piperazin-1-yl)prop-2-en-1-one]	+++ (+++ indicates binding activity greater than 90%)	
C=CC(=O)N1CCN(c2nc(NCCN(CC)CC)nc3c(F)c(-c4c(C)ccc5[nH]ncc45)c(Cl)cc23)CC1 [Example I-161, 1-(4-(6-chloro-2-(2-(diethyl-amino)ethylamino)-8-fluoro-7-(5-methyl-1H-indazol-4-yl)quinazolin-4-yl)piperazin-1-yl) prop-2-en-1-one]	+++ (+++ indicates binding activity greater than 90%)	
